Data on 1 substance can be found in patent publication US8703715B2, “Methods for inhibiting growth of prolactin-responsive cancer cells with cyclosporine a or other cyclophilin inhibitors” (The Trustees of the University of Pennsylvania, priority 2004, dated 2014).

The subject of one data set is breast cancer cells. The settings on record: breast cancer cells in culture.
For data set [1] the following is noted: human patients, approved indications (immunosuppressive use); cited from earlier work.

cyclosporine A: the “media concentration having profound effects on survival of breast cancer cells” value with breast cancer cells is at least 20 ng/mL. The Peak serum concentrations in data set [1] is 2 to 8 µg/mL.
